Source: ChEMBL document CHEMBL6134905, “Double Swords in One: Novel Selective PI3K/110β PROTAC Degraders for the Treatment of Multidrug-Resistant Cancer by Activating ERS and Inhibiting P-gp” (J Med Chem, 2025)
The source made the active and inactive calls. No cut-off for these calls is given here.

Legend:
A549/CDDP [1] = assay: Upregulation of PERK expression in human A549/DDP cells at 0.25 to 25 uM incubated for 24 hrs by Western blot analysis; type: functional, cell-based; conditions: dose 0.25-25 µM
[2] = biological target: T1, von Hippel-Lindau disease tumor suppressor/Phosphatidylinositol 4,5-bisphosphate 3-kinase catalytic subunit beta isoform (Homo sapiens, UniProt P42338+P40337); assay: PROTAC activity at PI3K-p110beta/VHL in human A549/DDP cells assessed as reduction in PI3K-p110beta level at 25 uM measured for 24 hrs by Western blot analysis; type: cell-based
T1 sequence (P40337 whole entry, looked up, canonical isoform): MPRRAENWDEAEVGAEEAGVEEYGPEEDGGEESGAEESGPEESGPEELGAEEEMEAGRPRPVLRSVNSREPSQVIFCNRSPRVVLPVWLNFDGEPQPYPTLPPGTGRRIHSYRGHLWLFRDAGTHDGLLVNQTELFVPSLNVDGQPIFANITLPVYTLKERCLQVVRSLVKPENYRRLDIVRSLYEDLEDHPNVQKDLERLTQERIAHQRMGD
T1 sequence (P42338 whole entry, looked up, canonical isoform): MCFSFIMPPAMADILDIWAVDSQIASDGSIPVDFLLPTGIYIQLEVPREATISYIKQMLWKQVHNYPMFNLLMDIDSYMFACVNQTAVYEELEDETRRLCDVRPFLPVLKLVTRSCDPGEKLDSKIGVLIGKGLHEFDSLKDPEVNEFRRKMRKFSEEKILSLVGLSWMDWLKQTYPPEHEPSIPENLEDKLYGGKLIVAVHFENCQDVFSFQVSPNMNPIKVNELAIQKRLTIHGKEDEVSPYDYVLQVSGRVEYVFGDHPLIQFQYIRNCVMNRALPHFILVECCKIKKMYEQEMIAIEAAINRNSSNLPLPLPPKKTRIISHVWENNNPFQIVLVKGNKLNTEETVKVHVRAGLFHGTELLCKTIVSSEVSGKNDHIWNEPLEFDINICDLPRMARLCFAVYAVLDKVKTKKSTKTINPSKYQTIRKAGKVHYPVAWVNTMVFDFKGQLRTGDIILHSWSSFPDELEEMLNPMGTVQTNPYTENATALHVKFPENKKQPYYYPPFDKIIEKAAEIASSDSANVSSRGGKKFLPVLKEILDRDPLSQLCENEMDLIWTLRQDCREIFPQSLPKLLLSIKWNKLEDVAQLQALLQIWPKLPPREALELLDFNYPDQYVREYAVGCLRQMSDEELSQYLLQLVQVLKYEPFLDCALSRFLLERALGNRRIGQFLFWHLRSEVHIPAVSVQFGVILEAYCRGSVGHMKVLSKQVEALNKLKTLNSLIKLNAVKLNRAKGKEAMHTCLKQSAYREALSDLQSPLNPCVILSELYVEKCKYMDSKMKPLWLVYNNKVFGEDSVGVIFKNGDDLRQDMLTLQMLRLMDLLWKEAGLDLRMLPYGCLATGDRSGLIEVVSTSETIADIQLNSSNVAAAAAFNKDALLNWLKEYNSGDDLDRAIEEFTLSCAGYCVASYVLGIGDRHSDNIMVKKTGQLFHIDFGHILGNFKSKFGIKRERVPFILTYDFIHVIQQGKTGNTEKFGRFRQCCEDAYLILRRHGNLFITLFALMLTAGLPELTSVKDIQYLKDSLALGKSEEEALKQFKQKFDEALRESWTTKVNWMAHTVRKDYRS

A549/CDDP [3] = assay: Upregulation of ATF4 expression in human A549/DDP cells at 0.25 to 25 uM incubated for 24 hrs by Western blot analysis; type: functional, cell-based; conditions: dose 0.25-25 µM
[4] = biological target: von Hippel-Lindau disease tumor suppressor/Phosphatidylinositol 4,5-bisphosphate 3-kinase catalytic subunit alpha isoform (Homo sapiens, UniProt P42336+P40337); assay: PROTAC activity at PI3K-p110alpha/VHL in human A549/DDP cells assessed as induction of PI3K-p110alpha degradation incubated for 24 hrs by Western blot analysis; type: cell-based; conditions: for Activity: dose 0.04-50 µM
[5] = biological target: T1, von Hippel-Lindau disease tumor suppressor/Phosphatidylinositol 4,5-bisphosphate 3-kinase catalytic subunit beta isoform; assay: PROTAC activity at PI3K-p110beta/VHL in human A549/DDP cells assessed as induction of PI3K-p110beta degradation incubated for 24 hrs by Western blot analysis; type: cell-based; conditions: dose 0.04-50 µM
[6] = biological target: T1, von Hippel-Lindau disease tumor suppressor/Phosphatidylinositol 4,5-bisphosphate 3-kinase catalytic subunit beta isoform; assay: PROTAC activity at PI3K-p110beta/VHL in human A549/DDP cells assessed as reduction in PI3K-p110beta level incubated for 12 to 36 hrs hrs by Western blot analysis; type: cell-based; conditions: time 12-36 hrs
MCF7/ADM [7] = assay: Antitumor activity against human MCF7/ADM cells xenografted in BALB/c mouse assessed as increase in CHOP expression in tumor at 50 mg/kg, ip by Western blot analysis; type: functional, organism-based
A549/CDDP [8] = assay: Induction of apoptosis in human A549/DDP cells assessed as decrease in bcl-2 expression at 12.5 uM incubated for 24 hrs by Western blot analysis; type: functional, cell-based
[9] = Toxicity in BALB/c mouse xenografted with human MCF7/ADM cells assessed as kidney damage at 50 mg/kg, ip by H and E staining based analysis; type: organism-based; conditions: in vivo
A549/CDDP [10] = assay: Upregulation of ATF6 expression in human A549/DDP cells at 0.25 to 25 uM incubated for 24 hrs by Western blot analysis; type: functional, cell-based; conditions: dose 0.25-25 µM
MCF7/ADM [11] = assay: Induction of apoptosis in human MCF7/ADM cells assessed as increase in cleaved caspase-9 expression at 12.5 uM incubated for 24 hrs by Western blot analysis; type: functional, cell-based
A549/CDDP [12] = assay: Downregulation of p-gp level in human A549/DDP cells at 6.25 to 25 uM incubated for 24 hrs; type: functional, cell-based; conditions: dose 6.25-25 µM
MCF7/ADM [13] = assay: Antitumor activity against human MCF7/ADM cells xenografted in BALB/c mouse assessed as downregulation of p110beta level in tumor at 50 mg/kg, ip; type: functional, organism-based
A549/CDDP [14] = assay: Induction of apoptosis in human A549/DDP cells assessed as increase in cleaved caspase-8 expression at 12.5 uM incubated for 24 hrs by Western blot analysis; type: functional, cell-based
MCF7/ADM [15] = assay: Upregulation of PERK expression in human MCF7/ADM cells at 0.25 to 25 uM incubated for 24 hrs by Western blot analysis; type: functional, cell-based; conditions: dose 0.25-25 µM
A549/CDDP [16] = assay: Induction of ROS level in human A549/DDP cells at 25 uM measured for 24 hrs by MitoSOX staining based analysis; type: functional, cell-based
A549 = assay: Antitumor activity against human A549 cells assessed as cell viability incubated for 24 hrs by MTT assay; type: functional, cell-based; conditions: A549, 24 h
MCF7/ADM [17] = assay: Upregulation of PTEN expression in human MCF7/ADM cells at 25 uM incubated for 24 hrs by Western blot analysis; type: functional, cell-based
MCF7/ADM [18] = assay: Antitumor activity against human MCF7/ADM cells xenografted in BALB/c mouse assessed as reduction in p-gp expression in tumor at 50 mg/kg, ip by Western blot analysis; type: functional, organism-based
MCF7/ADM [19] = assay: Upregulation of CHOP expression in human MCF7/ADM cells at 0.25 to 25 uM incubated for 24 hrs by Western blot analysis; type: functional, cell-based; conditions: dose 0.25-25 µM
[20] = Toxicity in BALB/c mouse xenografted with human MCF7/ADM cells assessed as change in WBC count at 50 mg/kg, ip; type: organism-based; conditions: in vivo
[21] = biological target: T1, von Hippel-Lindau disease tumor suppressor/Phosphatidylinositol 4,5-bisphosphate 3-kinase catalytic subunit beta isoform; assay: PROTAC activity at PI3K-p110beta/VHL in human MCF7/ADM cells assessed as induction of PI3K-p110beta degradation at 25 uM measured for 24 hrs in presence of MG132 by Western blot analysis; type: cell-based
Mitochondrial membrane = assay: Induction of mitochondrial membrane potential loss in human MCF7/ADM cells assessed as increase in green fluorescence at 25 uM incubated for 48 hrs by JC-1 staining based flow cytometry
A549/CDDP [22] = assay: Induction of apoptosis in human A549/DDP cells assessed as increase in cleaved caspase-9 expression at 12.5 uM incubated for 24 hrs by Western blot analysis; type: functional, cell-based
[23] = Toxicity in BALB/c mouse xenografted with human MCF7/ADM cells assessed as tumor damage at 50 mg/kg, ip by H and E staining based analysis; type: organism-based; conditions: in vivo
MCF7/ADM [24] = assay: Upregulation of ATF4 expression in human MCF7/ADM cells at 0.25 to 25 uM incubated for 24 hrs by Western blot analysis; type: functional, cell-based; conditions: dose 0.25-25 µM
[25] = Toxicity in BALB/c mouse xenografted with human MCF7/ADM cells assessed as liver damage at 50 mg/kg, ip by H and E staining based analysis; type: organism-based; conditions: in vivo
[26] = Toxicity in BALB/c mouse xenografted with human MCF7/ADM cells assessed as body weight loss at 50 mg/kg, ip; type: organism-based; conditions: in vivo
[27] = Toxicity in BALB/c mouse xenografted with human MCF7/ADM cells assessed as change in AST level at 50 mg/kg, ip; type: organism-based; conditions: in vivo
[28] = Toxicity in BALB/c mouse xenografted with human MCF7/ADM cells assessed as spleen damage at 50 mg/kg, ip by H and E staining based analysis; type: organism-based; conditions: in vivo
MCF7/ADM [29] = assay: Upregulation of ATF6 expression in human MCF7/ADM cells at 0.25 to 25 uM incubated for 24 hrs by Western blot analysis; type: functional, cell-based; conditions: dose 0.25-25 µM
[30] = biological target: ATP-dependent translocase ABCB1 (Homo sapiens, UniProt P08183); assay: Inhibition of P-gp in human MCF7/ADM cells assessed as increase in intracellular Rh123 accumulation at 6.25 to 25 uM incubated for 24 hrs by flow cytometry analysis; type: cell-based; conditions: dose 6.25-25 µM
Chain of ATP-dependent translocase ABCB1 (P08183 whole entry): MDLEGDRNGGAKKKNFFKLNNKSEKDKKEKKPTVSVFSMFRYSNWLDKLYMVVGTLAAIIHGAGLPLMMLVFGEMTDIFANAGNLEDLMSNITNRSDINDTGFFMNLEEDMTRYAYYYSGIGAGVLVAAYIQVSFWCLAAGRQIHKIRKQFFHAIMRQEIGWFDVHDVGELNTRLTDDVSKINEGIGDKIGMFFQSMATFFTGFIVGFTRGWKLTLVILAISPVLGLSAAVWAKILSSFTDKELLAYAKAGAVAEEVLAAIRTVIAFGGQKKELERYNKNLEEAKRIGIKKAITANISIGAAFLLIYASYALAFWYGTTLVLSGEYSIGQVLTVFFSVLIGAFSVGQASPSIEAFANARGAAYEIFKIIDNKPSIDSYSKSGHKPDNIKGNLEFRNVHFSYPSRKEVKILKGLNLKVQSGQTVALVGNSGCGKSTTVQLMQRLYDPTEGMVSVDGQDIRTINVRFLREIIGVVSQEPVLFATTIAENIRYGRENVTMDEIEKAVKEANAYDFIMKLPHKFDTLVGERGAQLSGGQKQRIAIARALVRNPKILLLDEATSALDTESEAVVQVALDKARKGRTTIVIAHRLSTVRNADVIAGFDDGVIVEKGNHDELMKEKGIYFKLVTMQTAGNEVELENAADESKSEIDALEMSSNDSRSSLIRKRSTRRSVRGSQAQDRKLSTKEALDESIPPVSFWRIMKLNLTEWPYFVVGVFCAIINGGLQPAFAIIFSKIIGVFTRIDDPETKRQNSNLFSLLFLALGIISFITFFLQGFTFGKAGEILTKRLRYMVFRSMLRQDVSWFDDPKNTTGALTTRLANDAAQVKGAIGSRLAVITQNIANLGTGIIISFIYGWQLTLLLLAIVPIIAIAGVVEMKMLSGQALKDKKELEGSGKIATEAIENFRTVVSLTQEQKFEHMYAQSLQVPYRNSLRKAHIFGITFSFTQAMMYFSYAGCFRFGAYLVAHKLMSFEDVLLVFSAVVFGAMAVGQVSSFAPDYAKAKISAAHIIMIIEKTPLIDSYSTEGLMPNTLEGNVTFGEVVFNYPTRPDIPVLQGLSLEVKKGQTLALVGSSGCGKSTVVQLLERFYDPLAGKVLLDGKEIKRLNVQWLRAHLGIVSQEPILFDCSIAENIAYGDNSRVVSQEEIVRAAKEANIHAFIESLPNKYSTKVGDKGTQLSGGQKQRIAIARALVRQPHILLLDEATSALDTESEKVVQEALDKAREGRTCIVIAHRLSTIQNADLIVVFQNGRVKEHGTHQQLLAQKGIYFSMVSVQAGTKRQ

MCF7/ADM [31] = assay: Antitumor activity against human MCF7/ADM cells xenografted in BALB/c mouse assessed as downregulation of p110alpha level in tumor at 50 mg/kg, ip; type: functional, organism-based
MCF7/ADM [32] = assay: Induction of apoptosis in human MCF7/ADM cells assessed as increase in caspase-8 expression at 12.5 uM incubated for 24 hrs by Western blot analysis; type: functional, cell-based
MCF7/ADM [33] = assay: Induction of oxidative stress in human MCF7/ADM cells at 25 uM measured for 24 hrs; type: functional, cell-based
MCF7/ADM [34] = assay: Activation of unfolded protein response in human MCF7/ADM cells at 25 uM incubated for 24 hrs by PROTEOSTATR aggresome dye based fluorescent microscopy; type: functional, cell-based

| Activity [2] | Activity [4] | Activity [5] | Activity [6] | IC50 (A549) [µM] | SMILES | Activity (A549/CDDP [1]) | Activity (A549/CDDP [3]) | Activity (MCF7/ADM [7]) | Activity (A549/CDDP [8]) | Activity [9] | Activity (A549/CDDP [10]) | Activity (MCF7/ADM [11]) | Activity (A549/CDDP [12]) | Activity (MCF7/ADM [13]) | Activity (A549/CDDP [14]) | Activity (MCF7/ADM [15]) | Activity (A549/CDDP [16]) | Activity (MCF7/ADM [17]) | Activity (MCF7/ADM [18]) | Activity (MCF7/ADM [19]) | further results |
| --- | --- | --- | --- | --- | --- | --- | --- | --- | --- | --- | --- | --- | --- | --- | --- | --- | --- | --- | --- | --- | --- |
| Active | Dose-dependent-effect | Dose-dependent-effect | Active | 75.3 | Cc1cc(C(C)Nc2ccccc2C(=O)NCCOCCOCCC(=O)N[C@H](C(=O)N2C[C@H](O)C[C@H]2C(=O)NCc2ccc(-c3scnc3C)cc2)C(C)(C)C)c2nc(N3CCOCC3)cc(=O)n2c1 (stereo partly drawn) | Active | Active | Active | Active | Non-toxic | Active | Active | Active | Active | Active | Active | Active | Active | Active | Active | Activity [20]: Non-toxic; Activity [21]: Active; Activity (Mitochondrial membrane): Active; Activity (A549/CDDP [22]): Active; Activity [23]: Non-toxic; Activity (MCF7/ADM [24]): Active; Activity [25]: Non-toxic; Activity [26]: Non-toxic; Activity [27]: Non-toxic; Activity [28]: Non-toxic; Activity (MCF7/ADM [29]): Active; inhibition (INH) [30]: Active; Activity (MCF7/ADM [31]): Active; Activity (MCF7/ADM [32]): Active; Activity (MCF7/ADM [33]): Active; Activity (MCF7/ADM [34]): Active |
| Active | Dose-dependent-effect | Dose-dependent-effect | Active | 85.2 | Cc1cc(C(C)Nc2ccccc2C(=O)NCCCCCCC(=O)N[C@H](C(=O)N2C[C@H](O)C[C@H]2C(=O)NCc2ccc(-c3scnc3C)cc2)C(C)(C)C)c2nc(N3CCOCC3)cc(=O)n2c1 (stereo partly drawn) | Active | Active | Active | Active | Non-toxic | Active | Active | Active | Active | Active | Active | Active | Active | Active | Active | DC50 [4]: > 30 µM; Activity [20]: Non-toxic; Activity [21]: Active; Activity (Mitochondrial membrane): Active; Activity (A549/CDDP [22]): Active; Activity [23]: Non-toxic; Activity (MCF7/ADM [24]): Active; Activity [25]: Non-toxic; Activity [26]: Non-toxic; Activity [27]: Non-toxic; Activity [28]: Non-toxic; Activity (MCF7/ADM [29]): Active; inhibition (INH) [30]: Active; Activity (MCF7/ADM [31]): Active; Activity (MCF7/ADM [32]): Active; Activity (MCF7/ADM [33]): Active; Activity (MCF7/ADM [34]): Active |
